Results: patent US20240043427A1 (Gilead Sciences, Inc., priority 2020, published 2024)

Key:
CD73 [1] = molecular target: T1, CD73 (Homo sapiens (Human), UniProt P21589); assay type: biochemical; details: 1 mM NaH2PO4 in enzyme buffer, CD73 0.3 nM, AMP 15 uM
CD73 [2] = molecular target: T1, CD73; experiment: MDA-MB-231 Cell Based CD73 Activity Assay (DMEM); details: MDA-MB-231-GFP cells, DMEM medium with 10% human plasma, 200 uM AMP

T1 sequence (P21589 27-574): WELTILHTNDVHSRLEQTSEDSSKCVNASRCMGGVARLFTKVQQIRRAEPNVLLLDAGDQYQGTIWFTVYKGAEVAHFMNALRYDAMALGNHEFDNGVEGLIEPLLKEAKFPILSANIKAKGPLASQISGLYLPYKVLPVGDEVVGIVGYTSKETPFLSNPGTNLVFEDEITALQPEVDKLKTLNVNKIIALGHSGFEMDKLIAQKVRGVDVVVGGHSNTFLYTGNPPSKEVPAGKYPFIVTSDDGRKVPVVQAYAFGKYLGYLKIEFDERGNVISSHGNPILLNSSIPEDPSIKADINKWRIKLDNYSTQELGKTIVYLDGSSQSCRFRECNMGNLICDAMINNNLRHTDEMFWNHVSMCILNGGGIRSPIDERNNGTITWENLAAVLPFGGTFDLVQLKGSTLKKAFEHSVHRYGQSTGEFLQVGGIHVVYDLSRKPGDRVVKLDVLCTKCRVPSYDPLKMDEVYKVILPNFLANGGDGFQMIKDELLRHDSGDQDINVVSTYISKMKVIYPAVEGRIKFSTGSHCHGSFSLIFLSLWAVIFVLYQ

Row | Compound | IC50 (CD73 [1]) [nM] | EC50 (CD73 [2]) [nM]
1 | O=c1[nH]cc(-c2cc([C@H]3C[C@@H]3c3ccc4nc(C(F)(F)F)ccc4c3)c3nccn3n2)c(=O)[nH]1 [Example 131, 5-(8-((1S,2S)-2-(2-(trifluoromethyl)quinolin-6-yl)cyclopropyl)imidazo[1,2-b]pyridazin-6-yl)pyrimidine-2,4(1H,3H)-dione] | 0.78 | 6.1
2 | O=c1[nH]cc(-c2cc([C@H]3C[C@@H]3c3ccc(OC(F)F)cn3)c3ncc(F)n3n2)c(=O)[nH]1 [Example 132, 5-(8-((1S,2S)-2-(5-(difluoromethoxy)pyridin-2-yl)cyclopropyl)-3-fluoroimidazo[1,2-b]pyridazin-6-yl)pyrimidine-2,4(1H,3H)-dione] | 1.21 | 19.4
3 | O=c1[nH]cc(-c2cc([C@H]3C[C@@H]3c3ccc4cnc(C(F)(F)F)cc4c3)c3nccn3n2)c(=O)[nH]1 [Example 133, 5-(8-((1S,2S)-2-(3-(trifluoromethyl)isoquinolin-6-yl)cyclopropyl)imidazo[1,2-b]pyridazin-6-yl)pyrimidine-2,4(1H,3H)-dione] | 0.92 | 1.6
4 | O=c1[nH]cc(-c2cc([C@H]3C[C@@H]3c3cc(C(F)(F)F)c4ncccc4c3)c3ncc(F)n3n2)c(=O)[nH]1 [Example 134, 5-(3-fluoro-8-((1S,2S)-2-(8-(trifluoromethyl)quinolin-6-yl)cyclopropyl)imidazo[1,2-b]pyridazin-6-yl)pyrimidine-2,4(1H,3H)-dione] | 1.17 | 22.7
5 | O=c1[nH]cc(-c2cc([C@H]3C[C@@H]3c3cc(C(F)(F)F)c4ncccc4c3)c3nccn3n2)c(=O)[nH]1 [Example 135, 5-(8-((1S,2S)-2-(8-(trifluoromethyl)quinolin-6-yl)cyclopropyl)imidazo[1,2-b]pyridazin-6-yl)pyrimidine-2,4(1H,3H)-dione] | 1.99 | 44
6 | O=c1[nH]cc(-c2cc([C@H]3C[C@@H]3c3ccc(OC(F)F)cn3)c3nccn3n2)c(=O)[nH]1 [Example 137, 5-(8-((1S,2S)-2-(5-(difluoromethoxy)pyridin-2-yl)cyclopropyl)imidazo[1,2-b]pyridazin-6-yl)pyrimidine-2,4(1H,3H)-dione] | 1.28 | 4.68
7 | O=c1[nH]cc(-c2cc([C@H]3C[C@@H]3c3ccc4c(C(F)(F)F)ccnc4c3)c3nccn3n2)c(=O)[nH]1 [Example 139, 5-(8-((1S,2S)-2-(4-(trifluoromethyl)quinolin-7-yl)cyclopropyl)imidazo[1,2-b]pyridazin-6-yl)pyrimidine-2,4(1H,3H)-dione] | 4.55 | 296
8 | O=c1[nH]cc(-c2cc([C@H]3C[C@@H]3c3ccc(OC(F)F)nc3)c3nccn3n2)c(=O)[nH]1 [Example 140, 5-(8-((1S,2S)-2-(6-(difluoromethoxy)pyridin-3-yl)cyclopropyl)imidazo[1,2-b]pyridazin-6-yl)pyrimidine-2,4(1H,3H)-dione] | 1.68 | 5.25
9 | O=c1[nH]cc(-c2cc([C@H]3C[C@@H]3c3ccc(C(F)(F)F)cn3)c3ncc(F)n3n2)c(=O)[nH]1 [Example 144, 5-(3-fluoro-8-((1S,2S)-2-(5-(trifluoromethyl)pyridin-2-yl)cyclopropyl)imidazo[1,2-b]pyridazin-6-yl)pyrimidine-2,4(1H,3H)-dione] | 2.3 | 6.17
10 | CC1(C)CN(c2cc(-c3c[nH]c(=O)[nH]c3=O)nn3cc(C4CC4)nc23)CC1(F)F [Example 145, 5-(2-cyclopropyl-8-(3,3-difluoro-4,4-dimethylpyrrolidin-1-yl)imidazo[1,2-b]pyridazin-6-yl)pyrimidine-2,4(1H,3H)-dione] | 20.5 | 41.7
11 | O=c1[nH]cc(-c2cc([C@H]3C[C@@H]3c3ccc(F)cc3F)c3nc(C4CC4)cn3n2)c(=O)[nH]1 [Example 146, 5-(2-cyclopropyl-8-((1S,2S)-2-(2,4-difluorophenyl)cyclopropyl)imidazo[1,2-b]pyridazin-6-yl)pyrimidine-2,4(1H,3H)-dione] | 6.12 | 46.7
12 | O=c1[nH]cc(-c2cc(N3CC(F)C4(CC4)C3)n3nccc3n2)c(=O)[nH]1 (stereo not drawn) [Example 147, 5-(7-(7-fluoro-5-azaspiro[2.4]heptan-5-yl)pyrazolo[1,5-a]pyrimidin-5-yl)pyrimidine-2,4(1H,3H)-dione] | 39 | 96.1
13 | O=c1[nH]cc(-c2cc(N3CC(F)C4(CC4)C3)c3ncc(F)n3n2)c(=O)[nH]1 (stereo not drawn) [Example 148, 5-(3-fluoro-8-(7-fluoro-5-azaspiro[2.4]heptan-5-yl)imidazo[1,2-b]pyridazin-6-yl)pyrimidine-2,4(1H,3H)-dione] | 8 | 17.9
14 | O=c1[nH]cc(-c2cc([C@H]3C[C@@H]3c3ccc(C(F)(F)F)cn3)c3nccn3n2)c(=O)[nH]1 [Example 150, 5-(8-((1S,2S)-2-(5-(trifluoromethyl)pyridin-2-yl)cyclopropyl)imidazo[1,2-b]pyridazin-6-yl)pyrimidine-2,4(1H,3H)-dione] | 1.93 | 4.79
15 | O=c1[nH]cc(-c2cc([C@H]3C[C@@H]3c3ccc(C(F)(F)F)nc3)c3nccn3n2)c(=O)[nH]1 [Example 153, 5-(8-((1S,2S)-2-(6-(trifluoromethyl)pyridin-3-yl)cyclopropyl)imidazo[1,2-b]pyridazin-6-yl)pyrimidine-2,4(1H,3H)-dione] | 2.3 | 8.85
16 | N#Cc1ccc([C@H]2C[C@@H]2c2cc(-c3c[nH]c(=O)[nH]c3=O)nn3c(F)cnc23)cc1 [Example 158, 4-((1S,2S)-2-(6-(2,4-dioxo-1,2,3,4-tetrahydropyrimidin-5-yl)-3-fluoroimidazo[1,2-b]pyridazin-8-yl)cyclopropyl)benzonitrile] | 0.55 | 2.52
17 | O=c1[nH]cc(-c2cc([C@H]3C[C@@H]3c3ccccn3)c3nccn3n2)c(=O)[nH]1 [Example 159, 5-(8-((1S,2S)-2-(pyridin-2-yl)cyclopropyl)imidazo[1,2-b]pyridazin-6-yl)pyrimidine-2,4(1H,3H)-dione] | 1.76 | 2.62
18 | O=c1[nH]cc(-c2cc([C@H]3C[C@@H]3c3cccnc3)c3nccn3n2)c(=O)[nH]1 [Example 162, 5-(8-((1S,2S)-2-(pyridin-3-yl)cyclopropyl)imidazo[1,2-b]pyridazin-6-yl)pyrimidine-2,4(1H,3H)-dione] | 1.64 | 4.41
19 | O=c1[nH]cc(-c2cc(N3CCC(F)(C(F)(F)F)C3)c3nccn3n2)c(=O)[nH]1 (stereo not drawn) [Example 169, 5-(8-(3-fluoro-3-(trifluoromethyl)pyrrolidin-1-yl)imidazo[1,2-b]pyridazin-6-yl)pyrimidine-2,4(1H,3H)-dione] | 73.9 | 189
20 | O=c1[nH]cc(-c2cc(N3CC(C(F)F)C4(CC4)C3)c3nccn3n2)c(=O)[nH]1 (stereo not drawn) [Example 170, 5-(8-(7-(difluoromethyl)-5-azaspiro[2.4]heptan-5-yl)imidazo[1,2-b]pyridazin-6-yl)pyrimidine-2,4(1H,3H)-dione] | 35.4 | 136
21 | O=c1[nH]cc(-c2cc(N3CC(F)C4(CC4)C3)c3nccn3n2)c(=O)[nH]1 (stereo not drawn) [Example 171, 5-(8-(7-fluoro-5-azaspiro[2.4]heptan-5-yl)imidazo[1,2-b]pyridazin-6-yl)pyrimidine-2,4(1H,3H)-dione] | 3.17 | 14.1
22 | COc1ccc(C2CCN(c3cc(-c4c[nH]c(=O)[nH]c4=O)nn4ccnc34)C2)cc1 (stereo not drawn) [Example 173, 5-(8-(3-(4-methoxyphenyl)pyrrolidin-1-yl)imidazo[1,2-b]pyridazin-6-yl)pyrimidine-2,4(1H,3H)-dione] | 3.59 | 88.2
23 | CC(C)[C@@H]1CCN(c2cc(-c3c[nH]c(=O)[nH]c3=O)nn3ccnc23)C1 [Example 174, (S)-5-(8-(3-isopropylpyrrolidin-1-yl)imidazo[1,2-b]pyridazin-6-yl)pyrimidine-2,4(1H,3H)-dione] | 69 | 214
24 | O=c1[nH]cc(-c2cc(N3CC[C@@H](C(F)(F)F)C3)c3nccn3n2)c(=O)[nH]1 [Example 175, (R)-5-(8-(3-(trifluoromethyl)pyrrolidin-1-yl)imidazo[1,2-b]pyridazin-6-yl)pyrimidine-2,4(1H,3H)-dione] | 3.6 | 23.1
25 | O=c1[nH]cc(-c2cc(N3CCC(F)(F)C3)c3ncc(F)n3n2)c(=O)[nH]1 [Example 176, 5-(8-(3,3-difluoropyrrolidin-1-yl)-3-fluoroimidazo[1,2-b]pyridazin-6-yl)pyrimidine-2,4(1H,3H)-dione] | 11 | 59.5
26 | O=c1[nH]cc(-c2cc(N3C[C@@H](F)[C@@H](F)C3)c3ncc(F)n3n2)c(=O)[nH]1 [Example 177, 5-(8-((3R,4S)-3,4-difluoropyrrolidin-1-yl)-3-fluoroimidazo[1,2-b]pyridazin-6-yl)pyrimidine-2,4(1H,3H)-dione] | 7.27 | 33.3
27 | CC1(C(F)(F)F)CCN(c2cc(-c3c[nH]c(=O)[nH]c3=O)nn3ccnc23)C1 (stereo not drawn) [Example 185, 5-[8-[3-methyl-3-(trifluoromethyl)pyrrolidin-1-yl]imidazo[1,2-b]pyridazin-6-yl]-1H-pyrimidine-2,4-dione] | 13.5 | 57.4
28 | C[C@@]1(F)CCN(c2cc(-c3c[nH]c(=O)[nH]c3=O)nn3ccnc23)C1 [Example 186, 5-[8-[(3R)-3-fluoro-3-methyl-pyrrolidin-1-yl]imidazo[1,2-b]pyridazin-6-yl]-1H-pyrimidine-2,4-dione] | 7.57 | 22.3
29 | O=c1[nH]cc(-c2cc(N3CC[C@@H](OC(F)(F)F)C3)c3nccn3n2)c(=O)[nH]1 [Example 187, 5-[8-[(3R)-3-(trifluoromethoxy)pyrrolidin-1-yl]imidazo[1,2-b]pyridazin-6-yl]-1H-pyrimidine-2,4-dione] | 2.76 | 12.6
30 | COCC1(F)CCN(c2cc(-c3c[nH]c(=O)[nH]c3=O)nn3ccnc23)C1 (stereo not drawn) [Example 188, 5-[8-[3-fluoro-3-(methoxymethyl)pyrrolidin-1-yl]imidazo[1,2-b]pyridazin-6-yl]-1H-pyrimidine-2,4-dione] | 17.5 | 62.5
